Laboratory results from the supplement of paper PMC10307832.

Experiments:
Assay in all cases: relative viability (nuclei count vs DMSO), 5 days (fraction); higher = more cells survive
[1] = compound: C1CC(C1)(C(=O)O)C(=O)O.[NH2-].[NH2-].[Pt+2] [Carboplatin] + Nc1nc2[nH]cc(CCc3ccc(C(=O)N[C@@H](CCC(=O)O)C(=O)O)cc3)c2c(=O)[nH]1 [Pemetrexed] (partner 0.2 µM)
Procedure, shortened: (§1)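 Relative viability is defined as nuclei in treated wells over nuclei in vehicle wells. Duplicate plates were run and medians reported. Lung cancer cell lines in 1536-well plates were dosed by pin tool one day after seeding, with one drug or with a fixed anchor-drug dose plus five library-drug doses (not always all listed) in √10 steps, and nuclei were counted after 5 days.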

[2] = compound: C1CC(C1)(C(=O)O)C(=O)O.[NH2-].[NH2-].[Pt+2] [Carboplatin] + COc1cccc2cc(-c3nc([C@H]4CC[C@H](C(=O)O)CC4)n4ncnc(N)c34)[nH]c12 [OSI-027] (partner 0.5 µM)
Procedure, shortened: as §1

[3] = compound: C1CC(C1)(C(=O)O)C(=O)O.[NH2-].[NH2-].[Pt+2] [Carboplatin] + O=C(CCCCCCC(=O)Nc1ccccc1)NO [Vorinostat] (partner 1 µM)
Procedure, shortened: as §1

[4] = compound: CC[C@H](C)N1C=C(C2=C(C=C(C=C21)C3=CN=C(C=C3)N4CCNCC4)C(=O)NCC5=C(C=C(NC5=O)C)C)C [GSK126] + CS(=O)(=O)N1CCN(Cc2cc3nc(-c4cccc5[nH]ncc45)nc(N4CCOCC4)c3s2)CC1 [Pictilisib] (partner 1 µM)
Procedure, shortened: as §1

Cell Line	relative viability ([1]; first compound 0.08 µM)	relative viability ([1]; first compound 0.253 µM)	relative viability ([1]; first compound 0.8 µM)	relative viability ([1]; first compound 2.53 µM)	relative viability ([1]; first compound 8 µM)	relative viability ([2]; first compound 0.08 µM)	relative viability ([2]; first compound 0.253 µM)	relative viability ([2]; first compound 0.8 µM)	relative viability ([2]; first compound 2.53 µM)	relative viability ([2]; first compound 8 µM)	relative viability ([3]; first compound 0.08 µM)	relative viability ([3]; first compound 0.253 µM)	relative viability ([3]; first compound 0.8 µM)	relative viability ([3]; first compound 2.53 µM)	relative viability ([3]; first compound 8 µM)	relative viability ([4]; first compound 0.08 µM)	relative viability ([4]; first compound 0.253 µM)	relative viability ([4]; first compound 0.8 µM)	relative viability ([4]; first compound 2.53 µM)	relative viability ([4]; first compound 8 µM)
201T	0.362	0.343	0.344	0.36	0.327	0.828	0.749	0.824	0.68	0.349	1.06	0.948	0.995	0.962	0.926	0.686	0.8	0.738	0.691	0.728
A549	–	–	–	–	–	–	–	–	–	–	–	–	–	–	–	0.506	0.479	0.485	0.46	0.53
A-427	1.03	1.01	0.942	0.897	1.05	0.449	0.531	0.479	0.499	0.39	0.865	0.854	0.864	0.864	0.829	0.855	0.786	0.701	0.799	0.641
ABC-1	–	–	–	–	–	0.551	0.509	0.547	0.335	0.299	1.53	1.33	0.834	1.18	0.407	0.972	1.03	0.732	0.858	0.687
BEN	1.02	0.931	0.772	0.759	0.738	0.295	0.304	0.266	0.287	0.292	0.658	0.611	0.598	0.625	0.581	0.706	0.569	0.582	0.541	0.438
CAL-12T	1.21	1.34	1.13	1.12	1.14	0.696	0.603	0.735	0.779	0.526	0.606	0.768	0.733	0.802	0.891	0.466	0.499	0.357	0.596	0.343
COR-L23	0.188	0.202	0.192	0.193	0.198	0.894	0.903	0.618	0.466	0.231	0.588	0.446	0.36	0.262	0.149	0.946	0.735	0.817	0.839	0.768
COR-L 105	1.13	1.27	1.18	0.854	0.615	0.835	0.776	0.696	0.62	0.537	0.817	0.855	0.92	0.739	0.48	0.435	0.406	0.347	0.389	0.459
Calu-6	–	–	–	–	–	–	–	–	–	–	–	–	–	–	–	1.03	0.987	0.913	1.07	0.967
ChaGo-K-1	0.262	0.261	0.253	0.249	0.269	0.614	0.473	0.527	0.42	0.316	0.752	0.704	0.649	0.577	0.4	0.831	0.656	0.746	0.722	0.649
EBC-1	–	–	–	–	–	–	–	–	–	–	–	–	–	–	–	0.42	0.321	0.41	0.321	0.25
EKVX	0.38	0.342	0.402	0.296	0.329	0.739	0.736	–	0.674	0.683	0.746	0.659	0.682	0.676	0.693	0.417	0.474	0.408	0.518	0.353
EMC-BAC-2	0.426	0.42	0.435	0.418	0.414	0.423	0.372	0.364	0.374	0.375	0.664	0.416	0.616	0.536	0.331	0.516	0.549	0.496	0.53	0.592
EPLC-272H	0.368	0.309	0.359	0.301	0.326	0.299	0.287	0.291	0.259	0.247	0.559	0.377	0.569	0.337	0.293	0.35	0.337	0.26	0.329	0.3
H3255	0.589	0.531	0.58	0.529	0.563	0.591	0.513	0.529	0.519	0.488	0.777	0.815	0.776	0.72	0.572	0.472	0.512	0.492	0.466	0.441
HARA	0.232	0.201	0.241	0.247	0.246	0.619	0.644	0.476	0.462	0.385	0.471	0.561	0.472	0.519	0.35	0.394	0.421	0.48	0.411	0.37
HCC-15	0.228	0.228	0.216	0.232	0.22	0.833	0.664	0.689	0.635	0.439	0.923	0.904	0.859	0.743	0.558	0.767	0.709	0.698	0.673	0.676
HCC-44	0.637	0.684	0.569	0.535	0.606	0.53	0.572	0.5	0.484	0.292	1.14	1.11	1.03	0.999	0.957	0.643	0.534	0.894	0.61	0.591
